Results published in US11033609B2, “Cyclic acetylcholinesterase C-terminal peptide in the treatment or prevention of cancer or metastasis” (priority 2014, dated 2021).
Where a SMILES comes first, the peptide text is derived from it.

What was measured:
Type in all cases: cell-based, human
KG1a cells [1] = experiment: Annexin V/propidium iodide in vitro apoptosis (cytotoxicity) assay; conditions: 72 h
Method: (§1) The acute myeloid leukaemia (AML) KG1a cell line was maintained in RPMI medium (Invitrogen) supplemented with 100 units/ml penicillin, 100 μg/ml streptomycin and 20% foetal calf serum. The multiple myeloma (MM) cell line H929, the two breast cancer cell lines (MCF7 and MDA-MB-231), the MEC-1 cells and the primary chronic lymphocytic leukaemia cells were maintained in RPMI medium supplemented with 100 units/ml penicillin, 100 μg/ml streptomycin and 10% foetal calf serum. The media used contained acetylcholine but after the initial set of experiments an additional 100 μM of acetylcholine was added to the culture media. Cells were subsequently aliquoted (10^6 cells/ml) into 24-well plates and were incubated at 37° C. in a humidified 5% carbon dioxide atmosphere for 72 h in the presence of the peptides (T15, T30, NBP-14 and the combination of T30+NBP-14) at concentrations between 0.1 nM and 1 μM. In addition, control cultures were carried out to which no peptide was added. Cells were subsequently harvested by centrifugation and were analysed by flow cytometry using the Annexin V assay or were counted using a Vi-Cell XR cell viability counter (Beckman Coulter).
(§2) Cultured cells were harvested by centrifugation and then resuspended in 195 of calcium-rich buffer. Subsequently, 5 μl of Annexin V (eBiosciences) was added to the cell suspension and cells were incubated in the dark for 10 mins prior to washing. Cells were finally resuspended in 190 μl of calcium-rich buffer together with 10 μl of propidium iodide. Apoptosis was assessed by dual-colour immunofluorescent flow cytometry using an Accuri C6 flow cytometer and data were analysed using CFlow software (BD Biosciences).
(§3) The in vitro drug sensitivity was measured using the Annexin V/propidium iodide assay. Comparison of the effects of each peptide alone or in combination in the various cell lines and primary cells are shown below.

H929 cells [2] = experiment: as above; conditions: H929, 72 h
Method: as §1, §2, §3

primary CLL cells [3] = experiment: as above; conditions: for apoptosis (cytotoxic effect): primary CLL cells derived from patients, 72 h
Method: as §1, §2, §3

MCF7 cells [4] = experiment: as above; conditions: MCF7, 72 h, peptides 0.1 nM to 1 μM
Method: as §1, §2, §3

MEC-1 cells [5] = experiment: as above; conditions: MEC-1, 72 h
Method: as §1, §2, §3

MDA-MB-231 cells [6] = experiment: as above; conditions: MDA-MB-231, 72 h, peptides 0.1 nM to 1 μM
Method: as §1, §2, §3

primary CLL cells [7] = experiment: Transwell migration assay; conditions: for migration: primary CLL cells from 10 patients, 1 μM peptide, 24 h transwell
Method: (§4) The acute myeloid leukaemia (AML) KG1a cell line was maintained in RPMI medium (Invitrogen) supplemented with 100 units/ml penicillin, 100 μg/ml streptomycin and 5% foetal calf serum. The multiple myeloma (MM) cell line JJN3, the two breast cancer cell lines (MCF7 and MDA-MB-231), the primary chronic lymphocytic leukaemia cells and normal B-lymphocytes were maintained in RPMI medium supplemented with 100 units/ml penicillin, 100 μg/ml streptomycin and 5% foetal calf serum. In addition, 100 μM of acetylcholine was added to the culture media to ensure that the availability of acetylcholine was not a limiting factor in these experiments.
(§5) In vitro migration assays were performed by using 6.0 μm pore size transwell migration plates (Costar, Corning, N.Y.). A total of 10^6 CLL cells in 500 μl of RPMI media were added to the upper chamber of the transwell insert. 100 ng/ml of CXCL12 was added to the baso-lateral chamber for all the cell types tested apart from KG1a cells. […] Instead, media containing 10% foetal calf serum was added to the baso-lateral chamber in these experiments. The plates were incubated for 24 h at 37° C. in 5% CO2 in the presence of the peptides (T15, T30, NBP-14 and the combination of T30+NBP-14) at concentrations between 0.1 nM and 10 μM. In addition, control cultures were carried out to which no peptide was added. Cells were subsequently harvested by centrifugation and were analysed by flow cytometry using an Accuri C6 flow cytometer (BD). None of the conditions tested induced significant cell death in the cultures. Migration of CLL cells was determined by counting cells that migrated to the lower (baso-lateral) chamber of the transwell plate and then expressed as a percentage of the total number of cells initially added to the upper (apical) chamber.

MCF7 cells [8] = experiment: Transwell migration assay; conditions: for migration: MCF7, 1 μM peptide, 24 h transwell, vs no peptide control
Method: as §4, §5

normal B-lymphocytes = experiment: Transwell migration assay; conditions: normal B-lymphocytes from healthy volunteers, 1 μM peptide, 24 h transwell
Method: as §4, §5

MDA-MB-231 cells [9] = experiment: Transwell migration assay; conditions: for migration: MDA-MB-231, 1 μM peptide, 24 h transwell, vs no peptide control
Method: as §4, §5

JJN3 cells [10] = experiment: Transwell migration assay; conditions: for migration: JJN3, 1 μM peptide, 24 h transwell, vs no peptide control
Method: as §4, §5

KG1a cells [11] = experiment: Transwell migration assay; conditions: for migration: 1 μM peptide, 24 h transwell, vs no peptide control
Method: as §4, §5

[12] = tested on: normal B- and T-lymphocytes; experiment: Annexin V/propidium iodide apoptosis assay in normal cells; conditions: B- and T-lymphocytes from normal healthy volunteers
Method: as §2, §3
In order to assess the effects of the acetylcholinesterase-derived peptides on normal (non-malignant) cells, B- and T-lymphocytes were isolated from normal healthy volunteers (n=3).

JJN3 cells [13] = experiment: In vitro proliferation; conditions: JJN3, concentrations of peptide >0.1 μM
H929 cells [14] = experiment: Transwell migration assay; conditions: H929, 1 μM NBP-14 vs baseline control
Method: as §5

MEC-1 cells [15] = experiment: Transwell migration assay; conditions: MEC-1, 1 μM NBP-14 vs baseline control
Method: as §5

H929 cells [16] = experiment: In vitro proliferation (Vi-Cell XR viable cell count); conditions: H929, concentrations above 0.1 μM
Method: as §1
(§6) Cultured cells were harvested by centrifugation and were then counted using a Vi-Cell XR cell viability counter. The number of viable cells in each culture was then expressed as a percentage of the viable cells in the control cultures (no peptide).

MCF7 cells [17] = experiment: as above; conditions: MCF7, concentrations above 0.1 μM
Method: as §1, §6

MEC-1 cells [18] = experiment: as above; conditions: MEC-1, concentrations above 0.1 μM
Method: as §1, §6

MDA-MB-231 cells [19] = experiment: as above
Method: as §1, §6

KG1a cells [20] = experiment: as above; conditions: concentrations above 0.1 μM
Method: as §1, §6

Compound | apoptosis (cytotoxic effect) (KG1a cells [1]) | apoptosis (cytotoxic effect) (H929 cells [2]) | apoptosis (cytotoxic effect) (primary CLL cells [3]) | apoptosis (cytotoxic effect) (MEC-1 cells [5]) | migration (primary CLL cells [7]) | migration (MCF7 cells [8]) | migration (normal B-lymphocytes) | migration (MDA-MB-231 cells [9]) | migration (JJN3 cells [10]) | migration (KG1a cells [11]) | further results
Nc1ccn([C@@H]2O[C@H](CO)[C@@H](O)[C@@H]2O)c(=O)n1 [Ara-C, reference compound] | dose-response at concentrations above 0.1 μM | – | – | – | – | – | – | – | – | – | –
CSCC[C@@H]1NC(=O)[C@H](Cc2ccc(O)cc2)NC(=O)[C@H](CO)NC(=O)[C@H](CO)NC(=O)[C@H](Cc2c[nH]c3ccccc23)NC(=O)[C@H](CCCNC(=N)N)NC(=O)[C@H](Cc2c[nH]cn2)NC(=O)[C@H](Cc2ccccc2)NC(=O)[C@H](CCC(=O)O)NC(=O)[C@H](C)NC(=O)[C@H](CCCCN)NC(=O)[C@H](Cc2c[nH]c3ccccc23)NC(=O)[C@H](Cc2c[nH]cn2)NC(=O)[C@H](C(C)C)NC1=O [NBP-14] (cyclo(AEFHRWSSYMVHWK)) | modest apoptotic effects | modest apoptotic effects | evidence of dose-response at concentrations above 0.1 μM | modest apoptotic effects | significant reduction in migration | little effect | significant reduction | significantly inhibited | significant inhibited | significantly inhibited | apoptosis (primary CLL cells [3]; primary CLL cells, at 1 μM): ~20%; apoptosis (cytotoxic effect) (MCF7 cells [4]): relatively increased sensitivity; apoptosis (cytotoxic effect) (MDA-MB-231 cells [6]): modest apoptotic effects; sensitivity of primary CLL cells to anti-migratory effect compared with normal B-cells (primary CLL cells [7]; primary CLL cells vs normal B-cells, 24 h): significantly more sensitive; migration (dose-response) (MCF7 cells [8]; MCF7, NBP-14 at concentrations ≥1 μM): failed to show a significant reduction in migration; migration (dose-response) (MDA-MB-231 cells [9]; MDA-MB-231, NBP-14 at concentrations ≥1 μM): significant decrease in migration; inhibition of migration compared with T30 (JJN3 cells [10]; JJN3, 1 μM, 24 h): significantly greater extent; migration (dose-response) (JJN3 cells [10]; JJN3, NBP-14 at concentrations ≥1 μM): significant decrease in migration; migration (dose-response) (KG1a cells [11]; NBP-14 at concentrations ≥1 μM): significant decrease in migration; toxicity in normal (non-malignant) cells [12]: lack of toxicity; proliferation (JJN3 cells [13]): anti-proliferative activity; migration (H929 cells [14]): significant reduction in cell migration; migration (MEC-1 cells [15]): significant reduction in cell migration; proliferation (H929 cells [16]): reduced proliferation; proliferation (MCF7 cells [17]): not as significant; proliferation (MEC-1 cells [18]): reduced proliferation; proliferation (MDA-MB-231 cells [19]; MDA-MB-231, peptide concentrations above 0.1 μM, compared with T15 control peptide): significant reduction in proliferation; proliferation (KG1a cells [20]): reduced proliferation
Nc1nc(F)nc2c1ncn2[C@@H]1O[C@H](CO)[C@@H](O)[C@@H]1O [fludarabine, reference compound] | – | induced a dose-response | – | induced a dose-response | – | – | – | – | – | – | –
Rituximab [reference compound] | – | – | more pronounced dose-response | – | – | – | – | – | – | – | –
T15 (NQFDHYSKQDRCSDL; listed as Homo sapiens) [reference compound] | – | – | – | – | did not significantly altered | Neither the T15 nor the T30 peptide showed a significant effect | no significant effect | – | no significant effect | did not alter | –
T30 (KAEFHRWSSYMVHWKNQFDHYSKQDRCSDL; listed as Homo sapiens) [reference compound] | – | – | – | – | did not significantly altered | Neither the T15 nor the T30 peptide showed a significant effect | no significant effect | significantly inhibited | significant inhibited | did not alter | inhibition of migration compared with NBP-14 (MDA-MB-231 cells [9]; MDA-MB-231, 1 μM, 24 h): significantly less effective; proliferation (MDA-MB-231 cells [19]; MDA-MB-231, sub-nanomolar concentrations): increased proliferation
